Assays:
HLA A*3001 = HLA A*3001 (Homo sapiens, UniProt P04439, D140H/D185E/E176W/F33S/G80R/H175R/K168Q/R138E/R41S); test: biochemical; format: binding
HLA A*3201 = HLA A*3201 (Homo sapiens, UniProt P04439, A270S/D101S/D185E/E176V/E277Q/F133L/G103R/G107R/G231S/H175R/I121M/I218V/I322F/K168Q/L105A/L300P/L318F/M331R/P208A/P217A/Q94H/R106L/R138Q/S129P/T104I/T323A/T345S/V100E/V321M/V358M); test: biochemical; format: binding
HLA A*6802 = HLA A*6802 (Homo sapiens, UniProt P04439, A269V/D140Y/D185E/E176V/E277Q/E87N/F33Y/G231S/I121R/I166T/I218V/L180W/L300P/L318F/N151K/P208A/P217A/Q86R/R138H/R169H/S129P/T345S/V36M); format: binding
HLA B*0702 = HLA B*0702 (Homo sapiens, UniProt P01889); format: binding; details: positional scanning combinatorial 9-mer library; normalized to 1.0 for the best residue at each position
HLA B*0801 = HLA B*0801 (Homo sapiens, UniProt P01889, A93T/A95T/D138N/E176V/E187T/K202T/Q94N/R180D/S35A/V36M/Y33D/Y91F); test: biochemical; format: binding
HLA B*1501 = HLA B*1501 (Homo sapiens, UniProt P01889, A329T/A93T/A95T/C349S/D201E/D98Y/E187L/E204Q/E69M/E70A/K202T/N87E/Q94N/R155S/R180W/S121R/S35A/S48A/V306I/V36M/Y140S/Y91S); test: biochemical; format: binding
HLA B*1503 = HLA B*1503 (Homo sapiens, UniProt P01889, A329T/A93T/A95T/C349S/D201E/D98Y/E187L/E204Q/K202T/N87E/Q94N/R155S/R180L/S121R/S35A/V306I/V36M/Y140S/Y91S); test: biochemical; format: binding
HLA B*2705 = HLA B*2705 (Homo sapiens, UniProt P01889, D138H/D201E/E176V/E204Q/G107R/H137Y/K202T/N104T/N87E/Q56L/Q94K/R106L/R155S/R180L/S101D/S121N/S48T/Y140D/Y33H/Y91C); format: binding; details: positional scanning combinatorial 9-mer library; normalized to 1.0 for the best residue at each position
HLA B*3501 = HLA B*3501 (Homo sapiens, UniProt P01889, A329T/A93T/A95T/C349S/D201E/D98Y/E176V/E187L/E204Q/E69T/I218V/K202T/L119I/Q94N/R155S/R180L/S121R/S35A/S48A/T118I/V127L/V306I/V36M/Y140S/Y91F); format: binding
HLA B*5101 = HLA B*5101 (Homo sapiens, UniProt P01889, A329T/A93T/A95T/C349S/D138N/D201E/D98Y/E187L/E204Q/E69T/G107R/I218V/K202T/L105A/L119W/N104I/Q94N/R106L/R155S/R180L/S101N/S121T/S35A/S48A/V306I/V36M/Y195H/Y91F); format: binding
HLA B*5301 = HLA B*5301 (Homo sapiens, UniProt P01889, A329T/A93T/A95T/C349S/D201E/D98Y/E176V/E187L/E204Q/E69T/G107R/I218V/K202T/L105A/L119I/N104I/Q94N/R106L/R155S/R180L/S101N/S121R/S35A/S48A/T118I/V127L/V306I/V36M/Y140S/Y91F); format: binding
HLA B*5401 = HLA B*5401 (Homo sapiens, UniProt P01889, A329T/C349S/D138N/D201E/E176V/E187T/E204Q/E69G/I76V/K202T/L119W/R155S/R180L/S121T/S35A/S48A/V127L/V306I/V36M/Y140L); format: binding
HLA B*5801 = HLA B*5801 (Homo sapiens, UniProt P01889, A329T/C349S/D201E/D98Y/E176V/E187L/E204Q/E69T/G107R/I218V/I90N/K202T/L105A/L119I/N104I/N87E/Q89R/Q94S/R106L/R155S/R180L/R86G/S101N/S121R/S35A/S48A/T118I/V127L/V306I/V36M/Y140S/Y91M); format: binding
HLA B*5802 = HLA B*5802 (Homo sapiens, UniProt P01889, A329T/C349S/D201E/D98Y/E176V/E187L/E204Q/E69T/G107R/I218V/I90N/K202T/L105A/N104I/N87E/Q89R/Q94S/R106L/R155S/R180L/R86G/S101N/S121W/S35A/S48A/V127L/V306I/V36M/Y140S/Y91M); format: binding
H-2 D^b = H-2 D^b (Mus musculus, UniProt P01899); format: binding
H-2 D^d = H-2 D^d (Mus musculus, UniProt P01900); format: binding
H-2 K^k = H-2 K^k (Mus musculus, UniProt P04223); format: binding
HLA A*0201 = HLA A*0201 (Homo sapiens, UniProt P04439, D140Y/D185E/D98H/E176V/E277Q/G131W/G231S/I119V/I121R/I166T/I218V/L300P/L318F/N151K/N90K/P208A/P217A/Q86G/Q94H/R138H/R169H/T345S); details: positional scanning combinatorial 9-mer library; normalized to 1.0 for the best residue at each position

Chain of H-2 D^d (P01900 whole entry, looked up): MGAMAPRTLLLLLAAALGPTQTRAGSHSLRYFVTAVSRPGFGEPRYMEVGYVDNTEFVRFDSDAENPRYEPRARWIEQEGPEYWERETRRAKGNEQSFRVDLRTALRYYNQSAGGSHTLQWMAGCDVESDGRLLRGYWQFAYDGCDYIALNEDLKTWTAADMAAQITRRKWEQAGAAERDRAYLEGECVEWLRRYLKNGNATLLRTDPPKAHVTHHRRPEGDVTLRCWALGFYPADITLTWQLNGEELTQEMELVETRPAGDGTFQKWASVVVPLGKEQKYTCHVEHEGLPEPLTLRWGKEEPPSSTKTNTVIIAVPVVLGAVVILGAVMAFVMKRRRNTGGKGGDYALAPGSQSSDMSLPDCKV
Chain of H-2 D^b (P01887 21-119): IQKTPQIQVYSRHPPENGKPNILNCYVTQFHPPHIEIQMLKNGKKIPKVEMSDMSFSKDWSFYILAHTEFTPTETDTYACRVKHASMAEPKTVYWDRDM
Chain of H-2 D^b (P01899 25-362): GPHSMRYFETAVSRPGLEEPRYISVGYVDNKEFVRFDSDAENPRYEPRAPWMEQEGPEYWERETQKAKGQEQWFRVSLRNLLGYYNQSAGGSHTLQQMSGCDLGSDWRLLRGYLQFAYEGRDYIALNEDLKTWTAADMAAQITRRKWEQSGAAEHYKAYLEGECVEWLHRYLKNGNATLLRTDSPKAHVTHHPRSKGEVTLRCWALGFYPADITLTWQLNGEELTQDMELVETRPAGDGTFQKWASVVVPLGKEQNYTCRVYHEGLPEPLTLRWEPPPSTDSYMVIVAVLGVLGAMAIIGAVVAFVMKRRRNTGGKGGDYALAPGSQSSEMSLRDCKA
Chain of H-2 K^k (P01887 21-119): as the sequence (P01887 21-119) above
Chain of H-2 K^k (P04223 22-369): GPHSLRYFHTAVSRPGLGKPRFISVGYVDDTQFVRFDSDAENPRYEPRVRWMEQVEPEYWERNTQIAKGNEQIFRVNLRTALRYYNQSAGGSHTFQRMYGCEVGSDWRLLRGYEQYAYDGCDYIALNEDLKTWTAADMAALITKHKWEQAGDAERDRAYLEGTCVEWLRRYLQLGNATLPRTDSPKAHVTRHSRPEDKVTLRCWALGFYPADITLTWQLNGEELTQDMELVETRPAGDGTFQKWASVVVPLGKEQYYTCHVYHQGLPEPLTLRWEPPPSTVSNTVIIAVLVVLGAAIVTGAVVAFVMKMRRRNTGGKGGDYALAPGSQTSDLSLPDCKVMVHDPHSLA

Sequence: KXXXXXXXX [3064.0009]
- Normalized average relative binding affinity (ARB), HLA A*3001 (HLA A*3001): 0.49
- Normalized average relative binding affinity (ARB), HLA A*3201 (HLA A*3201): 1.0
- Normalized average relative binding affinity (ARB), HLA A*6802 (HLA A*6802): 0.013
- Normalized average relative binding affinity (ARB), HLA B*0702 (HLA B*0702): 0.37
- Normalized average relative binding affinity (ARB), HLA B*0801 (HLA B*0801): 0.039
- Normalized average relative binding affinity (ARB), HLA B*1501 (HLA B*1501): 0.39
- Normalized average relative binding affinity (ARB), HLA B*1503 (HLA B*1503): 0.46
- Normalized average relative binding affinity (ARB), HLA B*2705 (HLA B*2705): 0.26
- Normalized average relative binding affinity (ARB), HLA B*3501 (HLA B*3501): 0.050
- Normalized average relative binding affinity (ARB), HLA B*5101 (HLA B*5101): 0.052
- Normalized average relative binding affinity (ARB), HLA B*5301 (HLA B*5301): 0.0057
- Normalized average relative binding affinity (ARB), HLA B*5401 (HLA B*5401): 0.037
- Normalized average relative binding affinity (ARB), HLA B*5801 (HLA B*5801): 1.0
- Normalized average relative binding affinity (ARB), HLA B*5802 (HLA B*5802): 1.0
- Normalized average relative binding affinity (ARB), H-2 Db (H-2 D^b): 0.14
- Normalized average relative binding affinity (ARB), H-2 Dd (H-2 D^d): 0.18
- Normalized average relative binding affinity (ARB), H-2 Kk (H-2 K^k): 0.082
- Normalized average relative binding affinity (ARB), HLA A*0201 (HLA A*0201): 0.11

Sequence: LXXXXXXXX [3064.0010]
- Normalized average relative binding affinity (ARB), HLA A*3001 (HLA A*3001): 0.081
- Normalized average relative binding affinity (ARB), HLA A*3201 (HLA A*3201): 0.48
- Normalized average relative binding affinity (ARB), HLA A*6802 (HLA A*6802): 0.071
- Normalized average relative binding affinity (ARB), HLA B*0702 (HLA B*0702): 0.23
- Normalized average relative binding affinity (ARB), HLA B*0801 (HLA B*0801): 0.22
- Normalized average relative binding affinity (ARB), HLA B*1501 (HLA B*1501): 0.61
- Normalized average relative binding affinity (ARB), HLA B*1503 (HLA B*1503): 0.52
- Normalized average relative binding affinity (ARB), HLA B*2705 (HLA B*2705): 0.26
- Normalized average relative binding affinity (ARB), HLA B*3501 (HLA B*3501): 0.31
- Normalized average relative binding affinity (ARB), HLA B*5101 (HLA B*5101): 0.41
- Normalized average relative binding affinity (ARB), HLA B*5301 (HLA B*5301): 0.14
- Normalized average relative binding affinity (ARB), HLA B*5401 (HLA B*5401): 0.19
- Normalized average relative binding affinity (ARB), HLA B*5801 (HLA B*5801): 0.53
- Normalized average relative binding affinity (ARB), HLA B*5802 (HLA B*5802): 0.044
- Normalized average relative binding affinity (ARB), H-2 Db (H-2 D^b): 0.20
- Normalized average relative binding affinity (ARB), H-2 Dd (H-2 D^d): 0.29
- Normalized average relative binding affinity (ARB), H-2 Kk (H-2 K^k): 0.49
- Normalized average relative binding affinity (ARB), HLA A*0201 (HLA A*0201): 0.054

Sequence: MXXXXXXXX [3064.0011]
- Normalized average relative binding affinity (ARB), HLA A*3001 (HLA A*3001): 0.37
- Normalized average relative binding affinity (ARB), HLA A*3201 (HLA A*3201): 0.76
- Normalized average relative binding affinity (ARB), HLA A*6802 (HLA A*6802): 0.75
- Normalized average relative binding affinity (ARB), HLA B*0702 (HLA B*0702): 0.56
- Normalized average relative binding affinity (ARB), HLA B*0801 (HLA B*0801): 0.79
- Normalized average relative binding affinity (ARB), HLA B*1501 (HLA B*1501): 0.89
- Normalized average relative binding affinity (ARB), HLA B*1503 (HLA B*1503): 0.40
- Normalized average relative binding affinity (ARB), HLA B*2705 (HLA B*2705): 0.44
- Normalized average relative binding affinity (ARB), HLA B*3501 (HLA B*3501): 0.90
- Normalized average relative binding affinity (ARB), HLA B*5101 (HLA B*5101): 0.32
- Normalized average relative binding affinity (ARB), HLA B*5301 (HLA B*5301): 0.26
- Normalized average relative binding affinity (ARB), HLA B*5401 (HLA B*5401): 1.0
- Normalized average relative binding affinity (ARB), HLA B*5801 (HLA B*5801): 0.70
- Normalized average relative binding affinity (ARB), HLA B*5802 (HLA B*5802): 0.21
- Normalized average relative binding affinity (ARB), H-2 Db (H-2 D^b): 0.18
- Normalized average relative binding affinity (ARB), H-2 Dd (H-2 D^d): 0.75
- Normalized average relative binding affinity (ARB), H-2 Kk (H-2 K^k): 0.78
- Normalized average relative binding affinity (ARB), HLA A*0201 (HLA A*0201): 0.25
